Data taken from ChEMBL document CHEMBL1201862, “PubChem BioAssay data set” (2004).
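Tested at 5 concentrations; 48 h exposure; 96-well plates; endpoints linearly interpolated, else capped at highest concentration. GI50 is the concentration that inhibits growth by half.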 Active and inactive are the calls of the source. No stated cut-off is given here; in the data, active = GI50 up to about 1.1 µM and inactive = higher.

Key:
Test in all cases: NCI anticancer screen, dose series, 48 h
786-0 = system: 786-0
A498 = system: A498
A549 = system: A549
ACHN = system: ACHN
BT-549 = system: BT-549
CAKI-1 = system: CAKI-1
CCRF-CEM = system: CCRF-CEM
COLO 205 = system: COLO 205
DU-145 = system: DU-145
EKVX = system: EKVX
HCC 2998 = system: HCC 2998
HCT-116 = system: HCT-116
HCT-15 = system: HCT-15
HL-60 = system: HL-60
HOP-62 = system: HOP-62
HOP-92 = system: HOP-92
HT-29 = system: HT-29
Hs-578T = system: Hs-578T
IGROV-1 = system: IGROV-1
K562 = system: K562
KM12 = system: KM12
LOX IMVI = system: LOX IMVI
M14 = system: M14
MCF7 = system: MCF7
MDA-MB-231 = system: MDA-MB-231
MDA-MB-435 = system: MDA-MB-435
MDA-N = system: MDA-N
MOLT-4 = system: MOLT-4
NCI-H226 = system: NCI-H226
NCI-H23 = system: NCI-H23
NCI-H460 = system: NCI-H460
NCI/ADR-RES = system: NCI/ADR-RES
OVCAR-3 = system: OVCAR-3
OVCAR-4 = system: OVCAR-4
OVCAR-5 = system: OVCAR-5
OVCAR-8 = system: OVCAR-8
PC-3 = system: PC-3
RPMI-8226 = system: RPMI-8226
RXF 393 = system: RXF 393
SF-268 = system: SF-268
SF-295 = system: SF-295
SF-539 = system: SF-539
SK-MEL-28 = system: SK-MEL-28
SK-MEL-2 = system: SK-MEL-2
SK-MEL-5 = system: SK-MEL-5
SK-OV-3 = system: SK-OV-3
SN12C = system: SN12C
SNB-19 = system: SNB-19
SNB-75 = system: SNB-75
SW-620 = system: SW-620
T47D = system: T47D
TK-10 = system: TK-10
U-251 = system: U-251
UACC-257 = system: UACC-257
UACC-62 = system: UACC-62
UO-31 = system: UO-31
Malme-3M = system: Malme-3M
NCI-H522 = system: NCI-H522
SR = system: SR

Measured: GI50

Cc1ccc(S(=O)(=O)Oc2cc(N)c3c(n2)CCC3)cc1
> 100 µM: HCT-15
inactive: 786-0 > 100 µM | A498 69.2 µM | A549 > 100 µM | ACHN > 100 µM | BT-549 > 100 µM | CAKI-1 > 100 µM | CCRF-CEM 64.1 µM | COLO 205 53.5 µM | DU-145 > 100 µM | EKVX 42.3 µM | HCC 2998 > 100 µM | HCT-116 > 100 µM | HL-60 43.2 µM | HOP-62 > 100 µM | HOP-92 52.6 µM | HT-29 48.3 µM | Hs-578T > 100 µM | IGROV-1 > 100 µM | K562 67 µM | KM12 > 100 µM | LOX IMVI > 100 µM | M14 > 100 µM | MCF7 > 100 µM | MDA-MB-231 > 100 µM | MDA-MB-435 > 100 µM | MDA-N > 100 µM | MOLT-4 33.7 µM | NCI-H226 36.8 µM | NCI-H23 > 100 µM | NCI-H460 > 100 µM | NCI/ADR-RES 79.8 µM | OVCAR-3 37.9 µM | OVCAR-4 34.4 µM | OVCAR-5 > 100 µM | OVCAR-8 > 100 µM | PC-3 > 100 µM | RPMI-8226 24.3 µM | RXF 393 > 100 µM | SF-268 > 100 µM | SF-295 53.8 µM | SF-539 > 100 µM | SK-MEL-28 > 100 µM | SK-MEL-2 > 100 µM | SK-MEL-5 39 µM | SK-OV-3 > 100 µM | SN12C > 100 µM | SNB-19 > 100 µM | SNB-75 > 100 µM | SW-620 > 100 µM | T47D 56.4 µM | TK-10 > 100 µM | U-251 > 100 µM | UACC-257 46.2 µM | UACC-62 97.5 µM | UO-31 69.3 µM

Cc1cc2nc3c(C)c4ccccc4c(C)n3c2cc1C
1.97 µM: HCT-15
inactive: 786-0 1.24 µM | A549 3.9 µM | ACHN 1.67 µM | BT-549 6.07 µM | CAKI-1 2.94 µM | CCRF-CEM 3.84 µM | COLO 205 2.15 µM | DU-145 3.3 µM | EKVX 5 µM | HCC 2998 3.33 µM | HL-60 3.22 µM | HOP-62 2.19 µM | HOP-92 2.09 µM | HT-29 2.2 µM | Hs-578T 5.56 µM | IGROV-1 2.05 µM | K562 5.21 µM | KM12 3.34 µM | M14 2.61 µM | MCF7 1.49 µM | MDA-MB-231 1.62 µM | MDA-MB-435 3.02 µM | MDA-N 1.89 µM | MOLT-4 2.39 µM | Malme-3M 1.98 µM | NCI-H23 2.67 µM | NCI-H460 1.79 µM | NCI-H522 2.51 µM | NCI/ADR-RES 1.51 µM | OVCAR-3 1.95 µM | OVCAR-4 4.35 µM | OVCAR-5 2.48 µM | OVCAR-8 1.73 µM | PC-3 2.96 µM | RPMI-8226 3.21 µM | RXF 393 2.84 µM | SF-268 3.85 µM | SF-295 2.59 µM | SF-539 1.56 µM | SK-MEL-28 3.27 µM | SK-MEL-2 3.66 µM | SK-MEL-5 2.26 µM | SK-OV-3 7.06 µM | SN12C 2.07 µM | SNB-19 4.02 µM | SNB-75 4.97 µM | SR 2.96 µM | SW-620 2.49 µM | T47D > 10 µM | TK-10 5.27 µM | U-251 3.33 µM | UACC-257 3.36 µM | UACC-62 4.14 µM
active: HCT-116 1.01 µM | LOX IMVI 0.857 µM

COc1ccc2c(c1O)[C@@]13CCCC=C1[C@@H](C2)N(C)CC3
> 100 µM: HCT-15
inactive: 786-0 > 100 µM | A549 > 100 µM | ACHN > 100 µM | BT-549 34 µM | CAKI-1 > 100 µM | CCRF-CEM 27.5 µM | COLO 205 97.1 µM | DU-145 > 100 µM | EKVX > 100 µM | HCC 2998 > 100 µM | HCT-116 36.6 µM | HL-60 21.4 µM | HOP-62 > 100 µM | HOP-92 39.7 µM | HT-29 32.1 µM | Hs-578T 42.5 µM | IGROV-1 > 100 µM | K562 21.3 µM | KM12 > 100 µM | LOX IMVI 41.4 µM | M14 79.6 µM | MCF7 81.5 µM | MDA-MB-231 77.6 µM | MDA-MB-435 36.6 µM | MDA-N 61.5 µM | MOLT-4 44.3 µM | Malme-3M 1.75 µM | NCI-H226 31.6 µM | NCI-H23 89.1 µM | NCI-H460 > 100 µM | NCI-H522 25.2 µM | NCI/ADR-RES 33 µM | OVCAR-3 50.7 µM | OVCAR-4 > 100 µM | OVCAR-5 > 100 µM | OVCAR-8 > 100 µM | PC-3 59.6 µM | RPMI-8226 29.3 µM | RXF 393 > 100 µM | SF-268 > 100 µM | SF-295 > 100 µM | SK-MEL-28 > 100 µM | SK-MEL-2 36.7 µM | SK-MEL-5 69.2 µM | SK-OV-3 > 100 µM | SN12C > 100 µM | SNB-19 > 100 µM | SNB-75 36.7 µM | SR 25.6 µM | SW-620 69.3 µM | T47D 90.2 µM | TK-10 > 100 µM | U-251 > 100 µM | UACC-257 > 100 µM | UACC-62 > 100 µM | UO-31 39 µM
